Our source for the RP-LC retention time values is the METLIN SMRT retention time set (Domingo-Almenara et al. 2019).

A short description of this data set: gradient 5% acetonitrile 3 min, to 50% in 2 min, to 85% in 15 min, held 3 min, 100 µL/min. The note with it: column: Zorbax Extend-C18 2.1 x 50 mm; eluents: water / acetonitrile, 0.1% formic acid. Put shortly: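 Retention times come from adduct peaks that were picked computationally and then checked by hand. The standards, pure and pooled in mixtures of ~100 molecules, were run on a Zorbax Extend-C18 column (2.1 × 50 mm, 1.8 μm) at 100 μL/min with water and acetonitrile, each with 0.1% formic acid. Detection was by quadrupole time-of-flight mass spectrometry in positive and negative ionization mode, with a dead volume of 40 μL and a dwell volume of 900 μL.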
`Cc1cc(C)cc(C(=O)NCc2ccc3c(c2)CCCN3C(=O)C2CCC2)c1`: the RP-LC retention time is 981 s. `Cc1cc(-c2nnc(-c3ccco3)o2)c(C)n1CC(=O)Nc1ccc(F)c(Cl)c1`: the RP-LC retention time was determined as 941 s. In the case of `COCCN1C(=O)[C@H]2CN(Cc3ccccc3)C[C@H]2C1=O` it was 572 s; in that of `CCN1C(=O)C2(CCN(S(=O)(=O)c3cc(F)ccc3OC)CC2)c2ccccc21`, 1030 s; in that of `NC(=O)c1cnn(-c2cccc(F)c2)c1-n1cccc1`, 734 s.

Regarding `C[C@H]1CN(C(=O)C2(c3ccccc3)CC2)C[C@@H]1c1nc(-c2cccnc2)no1`, the RP-LC retention time worked out at 827 s. In the case of `O=C(Nc1ccccc1F)C1CCN(S(=O)(=O)c2cc(-c3noc(C4CCC4)n3)cs2)CC1` it was 958 s; in that of `CCc1nc2cc(-c3noc(-c4ccc(NC(C)=O)cc4)n3)ccc2o1`, 925 s; in that of `COc1ccc(NC(=O)N(Cc2nnc3n2CCCCC3)c2ccc(OC)cc2)cc1`, 631 s. Under `COc1ccc2[nH]cc(CCNC(=O)c3cccc(Cl)c3)c2c1` stands 840 s. For the molecule `C(=N/NC1=NCCN1)/c1c2ccccc2c(/C=N\NC2=NCCN2)c2ccccc12`, the RP-LC retention time stood at 590 s. In the case of `Cn1c(=O)n(CC(=O)O)c(=O)c2c1nc1n2CCCN1c1ccc(Br)cc1` it was 751 s; in that of `CCC(=O)N1N=C(c2cccs2)CC1c1cccs1` (stereo not drawn), 880 s; in that of `COc1ccc(-c2noc(Cn3c(=O)n(CC(C)C)c(=O)c4ccccc43)n2)cc1OC`, 1050 s. For `O=C(NCc1csc(-c2cccs2)n1)C1CCN(S(=O)(=O)c2ccc(Cl)cc2)CC1`, the RP-LC retention time is 927 s.

Regarding `CCOC(=O)c1[nH]c(C)c(CCC(=O)N2CCC(C(=O)N3CCCCCC3)CC2)c1C`, the RP-LC retention time was found to be 774 s. `CCCC1c2nccn2CCCN1C(=O)c1conc1C` (stereo not drawn) showed an RP-LC retention time of 568 s.

In the case of `COC(=O)c1ccccc1NC(=O)c1noc2c1CCC2`, the RP-LC retention time was found to be 1110 s. In the case of `Cc1cnc(C2CC2)n1C1CCN(C(=O)C2(c3ccccc3)CC2)CC1` it was 636 s. In the case of `CC(C)(C)N(CC(=O)N(Cc1ccco1)CC1CCCO1)C(=O)Cc1ccccc1` (stereo not drawn) it was 907 s; in that of `O=C(Cn1c(=O)c2cccn2c2ccc(F)cc21)NCCCN1CCc2ccccc2C1`, 664 s; in that of `O=C(NCC1CCN(c2ncccn2)CC1)C(=O)NCC(F)(F)F`, 626 s.

Molecule `CCc1c(C(=O)O)nnn1Cc1cccc(OC)c1` returned an RP-LC retention time of 687 s. On to `Cc1ccc(-c2cc(C(=O)NCCCn3ccnc3)c3ccccc3n2)s1`, for which the RP-LC retention time is 684 s. In the case of `CC(NC(=O)C1CCCN(C(=O)c2cc3sccc3n2C)C1)C12CC3CC(CC(C3)C1)C2` (stereo not drawn) it was 1090 s; in that of `COc1ccccc1CNC(=O)C1CCCN(c2nn3c(=O)c4c(nc3s2)CCCC4)C1` (stereo not drawn), 737 s. `COCC(=O)NC1CCN(c2ccccc2)C1=O` (stereo not drawn): the RP-LC retention time came to 617 s. In the case of `CC(C)c1noc(-c2cc(=O)n(CC(=O)Nc3cc(F)ccc3F)c3ccccc23)n1` it was 1040 s; in that of `O=C(NCC1(N2CCOCC2)CCOC1)Nc1cc(F)cc(F)c1` (stereo not drawn), 604 s; in that of `COc1ccc(C)cc1NC(=O)Cn1nc(N2CCCC(C)C2)c2ccccc2c1=O` (stereo not drawn), 1260 s.

Molecule `CN1C(=O)C(C)(C(=O)Nc2ccccc2)Oc2cccnc21` (stereo not drawn) registered an RP-LC retention time of 788 s. In the case of `COC(=O)c1c(C)[nH]c(C(=O)N2CCC(CC(=O)NCc3ccc(N(C)C)cc3)CC2)c1C` it was 595 s; in that of `O=C([C@@H]1C[C@H](Oc2cccnc2)CN1C(=O)C1CCCC1)N1CCCC1`, 577 s.
